In PubChem BioAssay AID1259407 (Chemical Carcinogenesis Research Information System (CCRIS), 2018) one finds mutagenic call data, which are given here for 4 molecules.

The data set relates to CCRIS mutagenicity, Ames/micronucleus/aberration tests. Briefly: CCRIS mutagenicity studies.

Active and inactive are the calls of the source. The rule behind the calls is not given here.

As for `Cc1ccc(S(=O)(=O)O)cc1C`, the mutagenic call reads like this: (Test System: AMES SALMONELLA TYPHIMURIUM, Strain/Indicator: TA98, Metabolic Activation: HAMSTER LIVER S-9, AROCLOR 1254 (10%), Method: PREINCUBATION) “inactive; negative”; (Test System: AMES SALMONELLA TYPHIMURIUM, Strain/Indicator: TA98, Metabolic Activation: HAMSTER, LIVER, S-9, AROCLOR 1254 (10%), Method: PREINCUBATION) “inactive; negative”; (Test System: AMES SALMONELLA TYPHIMURIUM, Strain/Indicator: TA98, Metabolic Activation: NONE, Method: PREINCUBATION) “inactive; negative”; (Test System: AMES SALMONELLA TYPHIMURIUM, Strain/Indicator: TA98, Metabolic Activation: RAT LIVER S-9, AROCLOR 1254 (10%), Method: PREINCUBATION) “inactive; negative”; (Test System: AMES SALMONELLA TYPHIMURIUM, Strain/Indicator: TA98, Metabolic Activation: RAT, LIVER, S-9, AROCLOR 1254 (10%), Method: PREINCUBATION) “inactive; negative”; (Test System: AMES SALMONELLA TYPHIMURIUM, Strain/Indicator: TA100, Metabolic Activation: HAMSTER LIVER S-9, AROCLOR 1254 (10%), Method: PREINCUBATION) “inactive; negative”. The mutagenic call (Test System: AMES SALMONELLA TYPHIMURIUM, Strain/Indicator: TA100, Metabolic Activation: HAMSTER, LIVER, S-9, AROCLOR 1254 (10%), Method: PREINCUBATION) is “inactive; negative”; the mutagenic call (Test System: AMES SALMONELLA TYPHIMURIUM, Strain/Indicator: TA100, Metabolic Activation: NONE, Method: PREINCUBATION) is “inactive; negative”; the mutagenic call (Test System: AMES SALMONELLA TYPHIMURIUM, Strain/Indicator: TA100, Metabolic Activation: RAT LIVER S-9, AROCLOR 1254 (10%), Method: PREINCUBATION) was “inactive; negative”; the mutagenic call (Test System: AMES SALMONELLA TYPHIMURIUM, Strain/Indicator: TA100, Metabolic Activation: RAT, LIVER, S-9, AROCLOR 1254 (10%), Method: PREINCUBATION) was “inactive; negative”; the mutagenic call (Test System: AMES SALMONELLA TYPHIMURIUM, Strain/Indicator: TA1535, Metabolic Activation: HAMSTER LIVER S-9, AROCLOR 1254 (10%), Method: PREINCUBATION) was “inactive; negative”; the mutagenic call (Test System: AMES SALMONELLA TYPHIMURIUM, Strain/Indicator: TA1535, Metabolic Activation: HAMSTER, LIVER, S-9, AROCLOR 1254 (10%), Method: PREINCUBATION) is “inactive; negative”. Also, the mutagenic call is, setting by setting: (Test System: AMES SALMONELLA TYPHIMURIUM, Strain/Indicator: TA1535, Metabolic Activation: NONE, Method: PREINCUBATION) “inactive; negative”; (Test System: AMES SALMONELLA TYPHIMURIUM, Strain/Indicator: TA1535, Metabolic Activation: RAT LIVER S-9, AROCLOR 1254 (10%), Method: PREINCUBATION) “inactive; negative”; (Test System: AMES SALMONELLA TYPHIMURIUM, Strain/Indicator: TA1535, Metabolic Activation: RAT, LIVER, S-9, AROCLOR 1254 (10%), Method: PREINCUBATION) “inactive; negative”; (Test System: AMES SALMONELLA TYPHIMURIUM, Strain/Indicator: TA1537, Metabolic Activation: HAMSTER LIVER S-9, AROCLOR 1254 (10%), Method: PREINCUBATION) “inactive; negative”; (Test System: AMES SALMONELLA TYPHIMURIUM, Strain/Indicator: TA1537, Metabolic Activation: HAMSTER, LIVER, S-9, AROCLOR 1254 (10%), Method: PREINCUBATION) “inactive; negative”; (Test System: AMES SALMONELLA TYPHIMURIUM, Strain/Indicator: TA1537, Metabolic Activation: NONE, Method: PREINCUBATION) “inactive; negative”. In addition, the mutagenic call (Test System: AMES SALMONELLA TYPHIMURIUM, Strain/Indicator: TA1537, Metabolic Activation: RAT LIVER S-9, AROCLOR 1254 (10%), Method: PREINCUBATION) was “inactive; negative”; the mutagenic call (Test System: AMES SALMONELLA TYPHIMURIUM, Strain/Indicator: TA1537, Metabolic Activation: RAT, LIVER, S-9, AROCLOR 1254 (10%), Method: PREINCUBATION) was “inactive; negative”; the mutagenic call (Test System: MOUSE LYMPHOMA, Strain/Indicator: L5178Y (TK+/TK-), Metabolic Activation: NONE, Method: SUSPENSION/PLATE) is “inactive; negative”.
`Cc1c2c(c(CO)c3ccc4ccccc4c13)[C@H](O)[C@@H](O)C=C2`: the mutagenic call runs as follows: (Test System: CHINESE HAMSTER V-79, Strain/Indicator: V-79/6-THIOGUANINE, Metabolic Activation: CELL-MEDIATED, Method: STANDARD PLATE) “active; positive”; (Test System: CHINESE HAMSTER V-79, Strain/Indicator: V-79/OUABAIN, Metabolic Activation: CELL-MEDIATED, Method: STANDARD PLATE) “active; positive”.
Consider `CN(Cc1ccc([N+](=O)[O-])cc1)N=O`, for which the mutagenic call (Test System: AMES SALMONELLA TYPHIMURIUM, Strain/Indicator: TA1535, Metabolic Activation: HAMSTER, LIVER, S-9, AROCLOR 1254, Method: STANDARD PLATE) was “active; positive” and the mutagenic call (Test System: AMES SALMONELLA TYPHIMURIUM, Strain/Indicator: TA1535, Metabolic Activation: NONE, Method: STANDARD PLATE) was “inactive; negative”.
As to `O=[O+][O-]`, the mutagenic call is, setting by setting: (Test System: AMES SALMONELLA TYPHIMURIUM, Strain/Indicator: TA98, Metabolic Activation: NONE, Method: VAPOR CHAMBER) “inactive; negative”; (Test System: AMES SALMONELLA TYPHIMURIUM, Strain/Indicator: TA98, Metabolic Activation: RAT, LIVER, S-9, AROCLOR 1254, Method: VAPOR CHAMBER) “inactive; negative”; (Test System: AMES SALMONELLA TYPHIMURIUM, Strain/Indicator: TA100, Metabolic Activation: NONE, Method: VAPOR CHAMBER) “inactive; negative”; (Test System: AMES SALMONELLA TYPHIMURIUM, Strain/Indicator: TA100, Metabolic Activation: RAT, LIVER, S-9, AROCLOR 1254, Method: VAPOR CHAMBER) “inactive; negative”; (Test System: AMES SALMONELLA TYPHIMURIUM, Strain/Indicator: TA102, Metabolic Activation: NONE) “active; positive”; (Test System: AMES SALMONELLA TYPHIMURIUM, Strain/Indicator: TA102, Metabolic Activation: NONE, Method: VAPOR CHAMBER) “active; positive”. Moreover, the mutagenic call by setting is: (Test System: AMES SALMONELLA TYPHIMURIUM, Strain/Indicator: TA102, Metabolic Activation: RAT, LIVER, S-9, AROCLOR 1254 (10%)) “active; positive”; (Test System: AMES SALMONELLA TYPHIMURIUM, Strain/Indicator: TA102, Metabolic Activation: RAT, LIVER, S-9, AROCLOR 1254, Method: VAPOR CHAMBER) “active; positive”; (Test System: AMES SALMONELLA TYPHIMURIUM, Strain/Indicator: TA104, Metabolic Activation: NONE, Method: VAPOR CHAMBER) “inactive; negative”; (Test System: AMES SALMONELLA TYPHIMURIUM, Strain/Indicator: TA104, Metabolic Activation: RAT, LIVER, S-9, AROCLOR 1254, Method: VAPOR CHAMBER) “inactive; negative”; (Test System: AMES SALMONELLA TYPHIMURIUM, Strain/Indicator: TA1535, Metabolic Activation: NONE, Method: VAPOR CHAMBER) “inactive; negative”; (Test System: AMES SALMONELLA TYPHIMURIUM, Strain/Indicator: TA1535, Metabolic Activation: RAT, LIVER, S-9, AROCLOR 1254, Method: VAPOR CHAMBER) “inactive; negative”.
